Legend:
Staphylococcus aureus [1] = experiment: Antimicrobial activity against Staphylococcus aureus ATCC 25923 by standard broth microdilution method; format: functional
Staphylococcus aureus [2] = experiment: Antimicrobial activity against methicillin-resistant Staphylococcus aureus clinical isolates by standard broth microdilution method; format: functional
Staphylococcus aureus [3] = experiment: Antimicrobial activity against levofloxacin-resistant Staphylococcus aureus clinical isolates by standard broth microdilution method; format: functional
Streptococcus pneumoniae [4] = experiment: Antimicrobial activity against Streptococcus pneumoniae ATCC 49619 by standard broth microdilution method; format: functional
Streptococcus pneumoniae [5] = experiment: Antimicrobial activity against penicillin-resistant Streptococcus pneumoniae clinical isolates by standard broth microdilution method; format: functional
Streptococcus pyogenes [6] = experiment: Antimicrobial activity against Streptococcus pyogenes ATCC 19615 by standard broth microdilution method; format: functional
[7] = test system: Staphylococcus epidermidis; experiment: Antimicrobial activity against Staphylococcus epidermidis ATCC 12228 by standard broth microdilution method; format: functional
[8] = test system: Staphylococcus epidermidis; experiment: Antimicrobial activity against methicillin-resistant Staphylococcus epidermidis clinical isolates by standard broth microdilution method; format: functional
Escherichia coli [9] = experiment: Antimicrobial activity against Escherichia coli ATCC 25922 by standard broth microdilution method; format: functional
Escherichia coli [10] = experiment: Antimicrobial activity against ciprofloxacin-resistant Escherichia coli clinical isolates by standard broth microdilution method; format: functional
Pseudomonas aeruginosa = experiment: Antimicrobial activity against Pseudomonas aeruginosa ATCC 27853 by standard broth microdilution method; format: functional
Streptococcus pneumoniae [11] = experiment: Potency index, ratio of MIC for ciprofloxacin to MIC for test compound against penicillin-resistant Streptococcus pneumoniae clinical isolates by standard broth microdilution method; format: functional
Streptococcus pneumoniae [12] = experiment: Potency index, ratio of MIC for levofloxacin to MIC for test compound against penicillin-resistant Streptococcus pneumoniae clinical isolates by standard broth microdilution method; format: functional
Streptococcus pyogenes [13] = experiment: Potency index, ratio of MIC for ciprofloxacin to MIC for test compound against Streptococcus pyogenes ATCC 19615 by standard broth microdilution method; format: functional
Streptococcus pyogenes [14] = experiment: Potency index, ratio of MIC for levofloxacin to MIC for test compound against Streptococcus pyogenes ATCC 19615 by standard broth microdilution method; format: functional
Streptococcus pneumoniae [15] = experiment: Potency index, ratio of MIC for penicillin to MIC for test compound against penicillin-resistant Streptococcus pneumoniae clinical isolates by standard broth microdilution method; format: functional
Streptococcus pyogenes [16] = experiment: Potency index, ratio of MIC for penicillin to MIC for test compound against Streptococcus pyogenes ATCC 19615 by standard broth microdilution method; format: functional
Staphylococcus aureus [17] = experiment: Potency index, ratio of MIC for moxifloxacin to MIC for test compound against methicillin-resistant Staphylococcus aureus clinical isolates by standard broth microdilution method; format: functional
[18] = Aqueous solubility of the compound in water; format: physicochemical
[19] = Toxicity in ICR mouse administered as single intravenous dose; format: organism-based; settings: in vivo
[20] = AUC (0 to infinity) in beagle dog at 18.8 mg/kg, iv administered as single dose; format: ADME, organism-based, Canis lupus familiaris; set-up: dose 18.8 mg/kg, time infinity, route intravenous; settings: in vivo
[21] = Elimination half life in beagle dog at 18.8 mg/kg, iv administered as single dose; format: ADME, organism-based, Canis lupus familiaris; settings: in vivo, read-out: beta t1/2 (converted)
[22] = Tmax in beagle dog at 18.8 mg/kg, iv administered as single dose; format: ADME, organism-based, Canis lupus familiaris; settings: in vivo
[23] = Plasma clearance in beagle dog at 18.8 mg/kg, iv administered as single dose; format: ADME, organism-based, Canis lupus familiaris
[24] = Volume of distribution in beagle dog at 18.8 mg/kg, iv administered as single dose; format: ADME, organism-based, Canis lupus familiaris; settings: in vivo
[25] = Cmax in beagle dog at 18.8 mg/kg, iv administered as single dose; format: ADME, organism-based, Canis lupus familiaris; set-up: dose 18.8 mg/kg, route intravenous; settings: in vivo

C[C@H]1COc2c(N3CCC(O)CC3)c(F)cc3c(=O)c(C(=O)O)cn1c23.N=C(N)NCCC[C@H](N)C(=O)O.O
MIC (Staphylococcus aureus [1]): 0.031 µg/mL
MIC (Staphylococcus aureus [2]): 1 µg/mL
MIC (Staphylococcus aureus [3]): 0.25 µg/mL
MIC (Streptococcus pneumoniae [4]): 0.125 µg/mL
MIC (Streptococcus pneumoniae [5]): ≤ 0.016 µg/mL
MIC (Streptococcus pyogenes [6]): ≤ 0.016 µg/mL
MIC [7]: 0.031 µg/mL
MIC [8]: 1 µg/mL
MIC (Escherichia coli [9]): 0.125 µg/mL
MIC (Escherichia coli [10]): 0.25 µg/mL
MIC (Pseudomonas aeruginosa): 2 µg/mL
Ratio (Streptococcus pneumoniae [11]): 32
Ratio (Streptococcus pneumoniae [12]): 32
Ratio (Streptococcus pyogenes [13]): 32
Ratio (Streptococcus pyogenes [14]): 32
Ratio (Streptococcus pneumoniae [15]): 64
Ratio (Streptococcus pyogenes [16]): 64
Ratio (Staphylococcus aureus [17]): 4
solubility [18]: 5330 µg/mL
LD50 [19]: 1400 mg/kg
AUC(0-inf) [20]: 27000 ng·h/mL
half-life [21]: 3.25 h
Tmax [22]: 4.8 min
clearance [23]: 11.6 mL/min/kg
Vd [24]: 3.27 L/kg
Cmax [25]: 15700 ng/mL
